Experimental data reported in the supplement of paper PMC10307832.

Key:
Assay in all cases: relative viability (nuclei count vs DMSO), 5 days (fraction); higher = more cells survive
Bortezomib + Olaparib = compound: CC(C)C[C@H](NC(=O)[C@H](Cc1ccccc1)NC(=O)c1cnccn1)B(O)O [Bortezomib] + O=C(c1cc(Cc2n[nH]c(=O)c3ccccc23)ccc1F)N1CCN(C(=O)C2CC2)CC1 [Olaparib] (partner 8 µM)
Summary of the method: (§1)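 Relative viability was taken as the ratio of nuclei in treated wells to nuclei in vehicle wells. Lung cancer cell lines in 1536-well plates received compounds by pin tool one day after seeding, either one drug alone or a fixed anchor-drug dose plus five library-drug doses (not always all listed) in √10 steps. Nuclei were counted on 4× images after 5 days of treatment, and values are medians of duplicate plates.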

Bortezomib + Alpelisib = compound: CC(C)C[C@H](NC(=O)[C@H](Cc1ccccc1)NC(=O)c1cnccn1)B(O)O [Bortezomib] + Cc1nc(NC(=O)N2CCC[C@H]2C(N)=O)sc1-c1ccnc(C(C)(C)C(F)(F)F)c1 [Alpelisib] (partner 2 µM)
Summary of the method: as §1

Bortezomib + Tozasertib = compound: CC(C)C[C@H](NC(=O)[C@H](Cc1ccccc1)NC(=O)c1cnccn1)B(O)O [Bortezomib] + Cc1cc(Nc2cc(N3CCN(C)CC3)nc(Sc3ccc(NC(=O)C4CC4)cc3)n2)n[nH]1 [Tozasertib] (partner 0.1 µM)
Summary of the method: as §1

Obatoclax + Luminespib = compound: COC1=CC(c2cc3ccccc3[nH]2)=N/C1=C\c1[nH]c(C)cc1C [Obatoclax] + CCNC(=O)c1noc(-c2cc(C(C)C)c(O)cc2O)c1-c1ccc(CN2CCOCC2)cc1 [Luminespib] (partner 0.01 µM)
Summary of the method: as §1

Cell Line	relative viability (Bortezomib + Olaparib; first compound 0.0002 µM)	relative viability (Bortezomib + Olaparib; first compound 0.000632 µM)	relative viability (Bortezomib + Olaparib; first compound 0.002 µM)	relative viability (Bortezomib + Olaparib; first compound 0.006325 µM)	relative viability (Bortezomib + Olaparib; first compound 0.02 µM)	relative viability (Bortezomib + Alpelisib; first compound 0.0002 µM)	relative viability (Bortezomib + Alpelisib; first compound 0.000632 µM)	relative viability (Bortezomib + Alpelisib; first compound 0.002 µM)	relative viability (Bortezomib + Alpelisib; first compound 0.006325 µM)	relative viability (Bortezomib + Alpelisib; first compound 0.02 µM)	relative viability (Bortezomib + Tozasertib; first compound 0.0002 µM)	relative viability (Bortezomib + Tozasertib; first compound 0.000632 µM)	relative viability (Bortezomib + Tozasertib; first compound 0.002 µM)	relative viability (Bortezomib + Tozasertib; first compound 0.006325 µM)	relative viability (Bortezomib + Tozasertib; first compound 0.02 µM)	relative viability (Obatoclax + Luminespib; first compound 0.01 µM)	relative viability (Obatoclax + Luminespib; first compound 0.03162 µM)	relative viability (Obatoclax + Luminespib; first compound 0.1 µM)	relative viability (Obatoclax + Luminespib; first compound 0.3162 µM)	relative viability (Obatoclax + Luminespib; first compound 1 µM)
NCI-H2023	0.427	0.473	0.485	0.0778	0.0633	0.525	0.612	0.74	0.383	0.0813	0.305	0.356	0.428	0.329	0.0545	0.57	0.799	0.556	0.257	0.107
EBC-1	0.756	0.67	0.229	0.0791	0.064	0.869	0.727	0.29	0.126	0.0969	–	–	–	–	–	–	–	–	–	–
NCI-H1666	0.684	0.783	0.697	0.511	0.45	1.04	0.98	1.04	0.232	0.217	0.558	0.664	0.51	0.296	0.261	1.05	1.06	1.03	0.509	0.378
NCI-H1975	0.779	0.766	0.16	0.103	0.126	0.696	0.615	0.163	0.127	0.108	0.676	0.831	0.099	0.0653	0.088	0.316	0.196	–	0.472	0.306
NCI-H1793	0.848	–	0.904	0.276	0.126	0.668	0.589	0.776	0.475	0.127	0.316	0.299	0.444	0.252	0.102	0.119	0.128	0.187	0.183	0.192
NCI-H1355	0.733	0.725	0.666	0.118	0.107	0.826	0.783	0.685	0.137	0.126	0.503	0.591	0.584	0.131	0.122	0.641	0.588	0.769	0.632	0.78
SW 900	0.855	0.63	0.213	0.148	0.173	–	–	–	–	–	0.522	0.544	0.184	0.103	0.14	0.164	0.153	0.179	0.131	0.148
A549	0.355	0.401	0.49	0.291	0.189	0.769	0.706	0.756	0.055	0.0365	–	–	–	–	–	–	–	–	–	–
NCI-H2170	0.583	0.576	0.584	0.11	0.102	0.637	0.687	0.904	0.232	0.14	0.658	0.718	0.783	0.178	0.145	0.624	0.592	0.761	0.588	0.652
EKVX	0.763	0.81	0.812	0.237	0.11	0.94	0.934	0.932	0.733	0.0816	0.419	0.437	0.342	0.2	0.105	0.899	0.954	0.979	0.67	0.728
RERF-LC-KJ	0.803	1.02	0.728	0.286	0.199	0.8	0.782	0.815	0.477	0.212	0.523	0.436	0.559	0.208	0.189	1.07	1.32	1.04	0.583	0.554
NCI-H1755	0.845	0.896	0.828	0.241	0.207	0.944	0.926	0.951	0.178	0.139	0.571	0.612	0.566	0.193	0.157	0.416	0.418	0.388	0.714	0.713
NCI-H661	0.745	0.69	0.78	0.376	0.213	0.582	0.501	0.625	0.602	0.216	0.367	0.355	0.341	0.287	0.201	0.917	0.937	0.921	0.808	0.601
LOU-NH91	0.893	0.84	0.348	0.318	0.286	0.72	0.628	0.395	0.309	0.305	0.643	0.7	0.32	0.224	0.166	0.351	0.367	0.345	0.265	0.294
LXF-289	1.01	1.03	–	0.0822	0.0818	1.03	1.01	0.946	0.0804	0.0589	0.166	0.183	0.157	0.0616	0.046	0.707	0.649	0.594	0.619	0.662
HCC-44	0.942	0.986	0.99	0.715	0.315	0.831	0.776	0.84	0.0994	0.115	0.887	–	0.305	0.161	0.221	1.07	0.992	0.658	0.65	0.167
HARA	0.973	0.809	0.872	0.0712	0.0979	0.808	0.673	0.949	0.0583	0.0865	0.0998	0.0941	0.0961	0.0503	0.061	0.889	0.827	0.728	0.692	1.05
201T	0.83	0.856	0.803	0.753	0.214	1.03	0.993	0.975	0.951	0.31	0.863	0.968	1.01	0.715	0.278	1.1	1.04	1.06	1.08	1.12
LC-2-ad	0.68	0.723	0.782	0.194	0.184	0.838	–	0.898	0.0898	0.0932	0.447	0.477	0.328	0.217	0.199	0.984	0.914	0.773	0.733	0.361

Cell Line	relative viability (Bortezomib + Olaparib; first compound 0.0002 µM)	relative viability (Bortezomib + Olaparib; first compound 0.000632 µM)	relative viability (Bortezomib + Olaparib; first compound 0.002 µM)	relative viability (Bortezomib + Olaparib; first compound 0.006325 µM)	relative viability (Bortezomib + Olaparib; first compound 0.02 µM)	relative viability (Bortezomib + Alpelisib; first compound 0.0002 µM)	relative viability (Bortezomib + Alpelisib; first compound 0.000632 µM)	relative viability (Bortezomib + Alpelisib; first compound 0.002 µM)	relative viability (Bortezomib + Alpelisib; first compound 0.006325 µM)	relative viability (Bortezomib + Alpelisib; first compound 0.02 µM)	relative viability (Bortezomib + Tozasertib; first compound 0.0002 µM)	relative viability (Bortezomib + Tozasertib; first compound 0.000632 µM)	relative viability (Bortezomib + Tozasertib; first compound 0.002 µM)	relative viability (Bortezomib + Tozasertib; first compound 0.006325 µM)	relative viability (Bortezomib + Tozasertib; first compound 0.02 µM)	relative viability (Obatoclax + Luminespib; first compound 0.01 µM)	relative viability (Obatoclax + Luminespib; first compound 0.03162 µM)	relative viability (Obatoclax + Luminespib; first compound 0.1 µM)	relative viability (Obatoclax + Luminespib; first compound 0.3162 µM)	relative viability (Obatoclax + Luminespib; first compound 1 µM)
NCI-H596	0.723	0.709	0.445	0.186	0.187	0.541	0.431	0.42	0.174	0.128	0.82	0.949	0.753	0.188	0.155	1.04	0.852	0.859	0.611	0.574
NCI-H1437	0.586	0.627	0.553	0.199	0.154	0.951	0.975	1.05	0.0854	0.0875	0.405	0.405	0.403	0.114	0.118	1.09	1.17	1.04	0.983	0.956
NCI-H727	0.673	0.968	0.681	0.803	0.176	0.5	0.514	0.494	0.14	0.106	0.688	0.775	0.606	0.394	0.162	0.278	0.344	0.347	0.316	0.342
PC-3 [JPC-3]	1.08	1.14	0.451	0.236	0.216	1.03	1.04	0.786	0.901	0.134	0.827	0.898	0.442	0.169	0.125	0.652	0.606	0.742	0.683	0.745
SW 1573	0.421	0.408	0.319	0.0537	0.0441	0.833	0.774	0.813	0.164	0.0782	0.168	0.172	0.165	0.0802	0.0573	0.26	0.442	0.206	0.188	0.164
NCI-H1650	0.607	0.757	0.165	0.12	0.157	–	–	–	–	–	0.426	0.57	0.19	0.139	0.153	0.172	0.208	0.21	0.202	0.23
NCI-H1792	0.415	0.313	0.531	0.062	0.046	0.576	0.646	0.579	0.714	0.319	–	–	–	–	–	0.419	0.474	–	0.376	0.394
Calu-6	0.509	0.524	0.529	0.0855	0.0795	0.961	1.01	1.04	0.123	0.0909	–	–	–	–	–	–	–	–	–	–
NCI-H2342	0.514	0.503	0.382	0.473	0.273	–	–	–	–	–	0.765	0.471	0.511	0.409	0.313	0.592	0.87	0.777	0.644	0.716
NCI-H1299	0.98	0.917	1.03	0.239	0.103	1.02	1.07	1.08	0.89	0.304	–	–	–	–	–	–	–	–	–	–
ChaGo-K-1	0.387	0.385	0.432	0.151	0.115	–	–	–	–	–	0.233	0.207	0.248	0.165	0.155	0.718	0.565	0.487	0.561	0.426
NCI-H1703	0.417	0.318	0.123	0.0785	0.0739	0.32	0.256	0.131	0.134	0.0835	–	–	–	–	–	–	–	–	–	–
NCI-H522	0.62	0.618	0.744	0.347	0.313	–	–	–	–	–	0.475	0.529	0.419	0.344	0.337	1.17	1.1	1.07	–	1.01
NCI-H1623	–	–	–	–	–	–	–	–	–	–	0.425	0.52	0.46	0.316	0.199	0.561	0.437	0.662	0.571	0.547
IA-LM	0.765	0.824	0.791	0.0665	0.0149	0.773	0.669	0.561	0.0626	0.0159	–	–	–	–	–	–	–	–	–	–
HCC-366	0.358	0.376	0.455	0.0607	0.0196	0.467	0.316	0.409	0.339	0.0134	0.13	0.115	0.094	0.0548	0.0273	–	–	–	–	–
HCC-78	0.928	0.662	0.398	0.233	0.258	0.331	0.359	0.258	0.136	0.148	0.488	0.331	0.41	0.236	0.209	–	–	–	–	–
NCI-H1563	–	–	–	–	–	0.882	0.848	0.844	0.505	0.489	–	–	–	–	–	0.519	0.528	0.529	0.503	0.517
NCI-H1648	0.721	0.822	0.799	0.238	0.267	–	–	–	–	–	0.439	0.396	0.262	0.453	0.257	–	–	–	–	–
